Reference: patent US12590094B2, “Compounds for the treatment of neurodegenerative and metabolic disorders” (UNIVERSITY OF FLORIDA RESEARCH FOUNDATION, INCORPORATED, priority 2019, dated 2026)
“And” between values parts separate entries of the source, which are not always exact repeats. Equal entries are not always repeated. “Also recorded” adds a separate entry of the source. Where two headings read alike, the source gives them in different places.

Key:
Cells exposed to TPrP [1] = experiment: cells; conditions: read-out: Viability EC50
Cells exposed to TPrP [2] = conditions: for EC50: read-out: Viability EC50
[3] = tested on: Human stem cell-derived neurons; experiment: Cellular PD model, α-synuclein PFFs-seeded human neurons; format: cell-based; conditions: 2 μM, PFFs 50 μg/ml, 17 days
Protocol: Human stem cell-derived neurons (30 days post-differentiation) were seeded with 50 μg/ml preformed α-synuclein fibrils (PFFs), treated with DMCM-10049 at 2 μM or vehicle, and fixed 17 days later for analysis. Control cells were not PFFs-seeded. A: Dendritic spines were labeled with the marker F-actin using Phalloidin-iFluor 488 (Abcam). B: pα-syn* (red, antibody GTX50222, GeneTex)+DAPI (blue) staining. Quantification was done using ImageJ (NIH), statistical analysis with one way ANOVA (Prism7). Mean values and SDs of 8 images (A) or 6 images (B) per each condition are shown. ****P<0.0001; ***P<0.001; ns=non significant.

PARP-1 = PARP-1 (Homo sapiens, UniProt P09874); experiment: PARP1 chemiluminescent assay kit (BPS Bioscience); format: biochemical; conditions: FIG. 15
Protocol: ABT-888 is a known PARP1 inhibitor serving as pharmacological control for the assay. […] The assay was performed using the BPS Bioscience PARP1 chemiluminescent assay kit according to the manufacturer's instructions.

GABAA R subtypes = conditions: relative to DMCM; cited from earlier work
[4] = tested on: Murine stem-cell derived neurons; experiment: Cellular PD/synucleinopathy model, PFFs-seeded murine neurons, neurite length; format: cell-based; conditions: FIG. 14
Protocol: Murine stem-cell derived neurons (8 days post-differentiation) were seeded with PFFs (A, B: 4 μg/ml; C, D: 3 μg/ml) and treated with the test compounds at the dose indicated, or with the vehicle DMSO, during the last 2 days of differentiation. Control cells were not PFFs-seeded. Cells were photographed by phase contrast microscopy. Neurite length was quantified using the NeuronJ plugin of ImageJ (NIH), statistical analysis was done in pairs by comparing compound-treated cells with the DMSO control (student's t-test, Prism8). Mean values and SEMs of 4 fields per each condition are shown. Each field contained approximately 50 to 100 neurons. Images shown correspond to a representative area of one field. ****P<0.0001; ***P<0.001; **P<0.01; *P<0.05; ns=not significant.

[5] = tested on: PK1 neuroblastoma cells treated with TPrP; experiment: cells; format: cell-based; conditions: for EC50: Neuroblastoma cell
[6] = tested on: PK1 neuroblastoma cells treated with TPrP; experiment: cells; format: cell-based; conditions: Neuroblastoma cell
[7] = tested on: Primary mouse cortical neurons; format: cell-based
NAMPT = biological target: T1, NAMPT (Homo sapiens, UniProt P43490); experiment: Colorimetric NAMPT activity assay (Abcam, ab221819); format: biochemical; conditions: tested at 5 μM or 20 μM
T1 construct: purchased Abcam ab221819
Protocol: Compounds were tested in a colorimetric NAMPT activity assay (Abcam, ab221819). Each data point represents a duplicate sample. […] Compounds were tested at 5 μM (A) or 20 μM (B).

[8] = tested on: PK1 cells treated with TPrP; format: cell-based
VEGFR-1 [9] = biological target: T2, VEGFR-1 (Homo sapiens, UniProt P17948); experiment: VEGFR inhibition of vatalanib analogs; format: biochemical; conditions: relative to vatalanib
VEGFR-1 [10] = biological target: T2, VEGFR-1; conditions: subtype not given; cited from earlier work
[11] = in vivo; cited from earlier work
[12] = tested on: PK1 cells exposed to TPrP; format: cell-based
[13] = read-out: EC50 (TPrP toxicity rescue / neuroprotection)

Sequence of PARP-1 (P09874 whole entry): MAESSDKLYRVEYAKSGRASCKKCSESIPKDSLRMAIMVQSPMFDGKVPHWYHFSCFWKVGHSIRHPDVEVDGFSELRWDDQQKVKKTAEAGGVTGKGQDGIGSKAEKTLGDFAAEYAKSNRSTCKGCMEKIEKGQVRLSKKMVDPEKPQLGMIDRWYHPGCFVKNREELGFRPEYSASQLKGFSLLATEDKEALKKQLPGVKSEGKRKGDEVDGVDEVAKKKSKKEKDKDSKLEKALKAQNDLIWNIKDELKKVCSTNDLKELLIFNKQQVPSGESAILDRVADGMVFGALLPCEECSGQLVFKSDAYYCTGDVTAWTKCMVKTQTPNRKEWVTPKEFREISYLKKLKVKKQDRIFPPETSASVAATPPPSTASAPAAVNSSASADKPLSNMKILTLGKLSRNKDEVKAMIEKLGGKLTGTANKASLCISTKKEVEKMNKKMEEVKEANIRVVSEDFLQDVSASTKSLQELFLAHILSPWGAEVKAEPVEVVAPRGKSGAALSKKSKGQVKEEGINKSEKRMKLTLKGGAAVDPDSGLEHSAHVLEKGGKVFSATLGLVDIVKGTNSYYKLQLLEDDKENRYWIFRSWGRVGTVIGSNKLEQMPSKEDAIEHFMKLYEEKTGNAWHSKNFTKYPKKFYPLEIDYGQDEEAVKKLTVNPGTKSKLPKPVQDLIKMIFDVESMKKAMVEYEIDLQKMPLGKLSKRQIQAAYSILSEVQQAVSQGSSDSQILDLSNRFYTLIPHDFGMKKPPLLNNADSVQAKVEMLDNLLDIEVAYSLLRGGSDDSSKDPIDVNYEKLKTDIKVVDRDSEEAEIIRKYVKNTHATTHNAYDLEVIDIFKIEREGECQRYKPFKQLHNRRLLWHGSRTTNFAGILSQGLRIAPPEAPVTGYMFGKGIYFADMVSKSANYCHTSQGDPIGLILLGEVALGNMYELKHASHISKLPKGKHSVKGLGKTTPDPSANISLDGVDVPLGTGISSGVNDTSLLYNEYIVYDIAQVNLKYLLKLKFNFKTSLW
T1 sequence (P43490 whole entry): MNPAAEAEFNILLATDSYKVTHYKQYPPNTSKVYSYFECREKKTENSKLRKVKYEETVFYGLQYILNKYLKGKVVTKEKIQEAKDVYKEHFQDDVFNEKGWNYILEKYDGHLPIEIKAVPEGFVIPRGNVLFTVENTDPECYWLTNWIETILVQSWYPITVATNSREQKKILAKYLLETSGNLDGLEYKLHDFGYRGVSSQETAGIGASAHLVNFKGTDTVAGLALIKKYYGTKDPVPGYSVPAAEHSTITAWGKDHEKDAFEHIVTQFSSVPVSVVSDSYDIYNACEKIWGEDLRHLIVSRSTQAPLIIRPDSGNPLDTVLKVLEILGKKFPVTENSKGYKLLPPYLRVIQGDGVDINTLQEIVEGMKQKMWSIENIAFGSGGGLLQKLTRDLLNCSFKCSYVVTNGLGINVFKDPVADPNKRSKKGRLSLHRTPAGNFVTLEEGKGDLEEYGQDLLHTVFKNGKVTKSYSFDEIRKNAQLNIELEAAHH
T2 sequence (P17948 27-1338, species assumed): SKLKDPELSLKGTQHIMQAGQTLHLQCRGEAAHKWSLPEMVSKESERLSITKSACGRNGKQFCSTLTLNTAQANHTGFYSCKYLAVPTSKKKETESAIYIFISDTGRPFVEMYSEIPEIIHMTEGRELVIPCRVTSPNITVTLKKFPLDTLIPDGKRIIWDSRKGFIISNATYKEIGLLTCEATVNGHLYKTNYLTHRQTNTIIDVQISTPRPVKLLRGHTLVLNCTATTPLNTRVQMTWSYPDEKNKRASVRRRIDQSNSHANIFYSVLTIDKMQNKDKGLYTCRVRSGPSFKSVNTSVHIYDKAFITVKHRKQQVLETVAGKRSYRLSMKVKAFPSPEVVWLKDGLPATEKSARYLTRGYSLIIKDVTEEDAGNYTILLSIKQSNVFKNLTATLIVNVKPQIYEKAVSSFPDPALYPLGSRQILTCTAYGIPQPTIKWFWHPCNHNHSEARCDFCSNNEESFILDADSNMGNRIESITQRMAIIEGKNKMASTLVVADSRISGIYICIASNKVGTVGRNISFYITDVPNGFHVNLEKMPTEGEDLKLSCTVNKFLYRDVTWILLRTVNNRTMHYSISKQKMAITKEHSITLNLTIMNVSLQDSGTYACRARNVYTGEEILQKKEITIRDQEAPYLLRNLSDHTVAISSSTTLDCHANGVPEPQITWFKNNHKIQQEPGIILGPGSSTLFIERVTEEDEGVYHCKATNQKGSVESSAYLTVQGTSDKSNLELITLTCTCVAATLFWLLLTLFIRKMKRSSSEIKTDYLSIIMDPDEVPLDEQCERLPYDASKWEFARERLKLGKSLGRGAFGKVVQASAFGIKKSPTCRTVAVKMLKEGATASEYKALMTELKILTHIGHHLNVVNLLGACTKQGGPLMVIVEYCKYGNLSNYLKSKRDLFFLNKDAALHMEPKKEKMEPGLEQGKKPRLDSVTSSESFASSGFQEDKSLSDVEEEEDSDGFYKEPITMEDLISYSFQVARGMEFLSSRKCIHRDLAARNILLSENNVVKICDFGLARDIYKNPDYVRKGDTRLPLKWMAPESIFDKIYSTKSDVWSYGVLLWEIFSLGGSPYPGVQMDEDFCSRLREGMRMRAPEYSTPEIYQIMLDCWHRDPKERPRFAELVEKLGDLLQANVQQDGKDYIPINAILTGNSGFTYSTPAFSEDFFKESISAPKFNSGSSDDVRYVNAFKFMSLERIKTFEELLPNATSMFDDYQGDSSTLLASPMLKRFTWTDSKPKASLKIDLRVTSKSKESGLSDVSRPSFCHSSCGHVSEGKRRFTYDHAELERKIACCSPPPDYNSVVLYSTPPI

Row | Compound | loss of neurites induced by PFFs exposure [4] | EC50 ([5]; read-out: Viability EC50) [nM] | EC50 ([6]; read-out: NAD EC50) [nM] | Activation of NAMPT (NAMPT) | other results
1 | CCc1c(C(=O)N[C@H]2CC[C@@H](N)CC2)ncc2[nH]c3cc(OC)c(OC)cc3c12 [DMCM-8137] | – | – | – | – | EC50 (Cells exposed to TPrP [1]): ~500 nM; neuroprotection in the TPrP neuroprotection assay (Cells exposed to TPrP [2]): neuroprotective
2 | CCc1c(C(=O)NN)ncc2[nH]c3cc(OC)c(OC)cc3c12 [DMCM-10049] | – | – | – | – | dendritic spines (F-actin) [3]: preserves dendritic spines; pα-syn* levels [3]: reduces pα-syn* levels; PARP-1 inhibition (PARP-1): absence of PARP-1 inhibition; EC50 (Cells exposed to TPrP [1]): ~500 nM; reduced potency for most GABAA R subtypes (GABAA R subtypes): over 100 ×
3 | O=c1cc(-c2ccc(O)cc2)oc2cc(O)cc(O)c12 [SR1-75663, 5,7-dihydroxy-2-(4-hydroxyphenyl)-4H-chromen-4-one] | prevent loss of neurites | 1700 | > 10000 | – | –
4 | CCc1c(C(=O)OC)ncc2[nH]c3cc(OC)c(OC)cc3c12 [SR1-75869, DMCM, reference compound] | – | 120 | 749 | not | neuritic breakdown and neuronal vacuolation induced by TPrP [7]: suppressed; rescue of TPrP-induced toxicity (cell viability) [7]: rescues TPrP-induced toxicity; excessive protein ADP ribosylation induced by TPrP [8]: mitigates excessive protein ADP ribosylation
5 | Cc1ccc(-c2nnc3c4ccccc4c(C)nn23)cc1S(=O)(=O)NC(C)(C)CO [SR1-115259] | prevent loss of neurites | 5.1 | 167 | not | –
6 | CC(=O)c1cccc(Nc2nnc(Cc3ccncc3)c3ccccc23)c1 [SR1-134005] | – | 6.3 | 105 | Activation of NAMPT | fold less potent than vatalanib at VEGFR-1 (VEGFR-1 [9]): 13 fold; PARP-1 inhibition (PARP-1): absence of PARP-1 inhibition; EC50 (Cells exposed to TPrP [1]): 20 nM; fold more potent than vatalanib as a neuroprotective agent [5]: more than 6 fold; EC50 [5, 13]: 6.3 nM
7 | COc1cc(Nc2nnc(Cc3ccncc3)c3ccccc23)cc(OC)c1 [SR1-151915] | – | 71.4 | 280 | – | IC50 (VEGFR-1 [10]): > 1000 nM; EC50 [5, 13]: 71.4 nM
8 | O=C(NCCCn1ccnc1)c1cnn2c(C(F)(F)F)cc(-c3ccccc3)nc12 [SR1-293229] | prevent loss of neurites | 1.9 | 6.8 | not | PARP-1 inhibition (PARP-1): absence of PARP-1 inhibition; EC50 (Cells exposed to TPrP [1]): 1.5 nM; EC50 (Cells exposed to TPrP [2]): 2 nM
9 | NS(=O)(=O)c1ccc(Nc2nc(-c3ccncc3)cs2)cc1 [SR1-477186] | prevent loss of neurites | 26 | 365 | not | –
10 | Cc1nc(C)c(-c2csc(Nc3ccc(S(N)(=O)=O)cc3)n2)s1 [SR1-477302] | – | 14 | 103 | – | EC50 (Cells exposed to TPrP [2]): 18 nM and 30 nM
11 | COc1ccc(-c2cc(C(F)(F)F)n3ncc(C(=O)NCCCn4ccnc4)c3n2)cc1 [SR3-5315] | – | – | – | – | EC50 (Cells exposed to TPrP [2]): > 16 nM
12 | Cc1ccc(-c2nnc3c4ccccc4c(C)nn23)cc1S(=O)(=O)N1CCOCC1 [SR5-22843] | – | 30 | 219 | – | PARP-1 inhibition (PARP-1): absence of PARP-1 inhibition
13 | Cc1ccc(-c2cc(C(F)F)n3ncc(C(=O)NCCCn4ccnc4)c3n2)cc1 [SR-024088] | – | – | – | – | Viability EC50: % effective (Cells exposed to TPrP [2]; at 1 nM): >80% effective at 1 nM
14 | Cc1nc(C)c(-c2csc(Nc3ccc(S(N)(=O)=O)cc3)n2)s1 [SR-27807] | – | – | – | – | EC50 (Cells exposed to TPrP [2]): 50 nM
15 | COc1ccc(-c2cc(=O)c3c(OC)c(OC)c(OC)c(OC)c3o2)cc1OC [SR-01000712262, 2-(3,4-dimethoxyphenyl)-5,6,7,8-tetramethoxy-4H-chromen-4-one] | prevent loss of neurites | 580 | 664 | not | PARP-1 inhibition (PARP-1): absence of PARP-1 inhibition
16 | Clc1ccc(Nc2nnc(Cc3ccncc3)c3ccccc23)cc1 [Vatalanib, reference compound] | prevent loss of neurites | 40 | 195 | – | oral bioavailability [11]: high; EC50 (Cells exposed to TPrP [1]): 45 nM; EC50 [5, 13]: 39.9 nM; EC50 ([6]; read-out: EC50 (NAD assay)): 195 nM
17 | CCOC(=O)c1ncn2c1CN(C)C(=O)c1cc(F)ccc1-2 [flumazenil] | – | – | – | – | protection against TPrP toxicity [12]: neither rescued TPrP-induced toxicity; also recorded: absence of protection
18 | NAD | – | – | – | – | neuritic breakdown and neuronal vacuolation induced by TPrP [7]: suppressed
